Measurements as given in ChEMBL document CHEMBL4680314, “Discovery of potent glycogen synthase kinase 3/cholinesterase inhibitors with neuroprotection as potential therapeutic agent for Alzheimer's disease” (Bioorg Med Chem, 2021).
Active and inactive are the calls of the source. No cut-off for these calls is given here.

Tests used:
Homo sapiens [1] = species on record: Homo sapiens; assay: Selectivity index, ratio of IC50 for p38MAPK delta (unknown origin) to IC50 for GSK-3 beta (unknown origin) by ATP competitive based analysis
N2a = assay: Effect on tau protein level in mouse N2a cells overexpressing human tau at 0.074 to 6 uM incubated for 6 hrs by Western blot analysis; format: functional, cell-based; conditions: dose 0.074-6 µM
Homo sapiens [2] = species on record: Homo sapiens; assay: Selectivity index, ratio of IC50 for p38MAPK alpha (unknown origin) to IC50 for GSK-3 beta (unknown origin) by ATP competitive based analysis
[3] = target: Mitogen-activated protein kinase 10 (Homo sapiens, UniProt P53779); assay: Inhibition of JNK3 (unknown origin) by ATP competitive based analysis
BV-2 [4] = assay: Anti-inflammatory activity in mouse BV-2 cells assessed as reduction in LPS-induced IL-1beta expression at 4 uM incubated for 1 hr followed by LPS stimulation and measured after 24 hrs by immunofluorescence based laser confocal microscopy; format: functional, cell-based; conditions: time 25.0 hrs
[5] = Clearance in Sprague-Dawley rat at 10 mg/kg, po measured upto 24 hrs by LC-MS/MS analysis; format: ADME, organism-based; conditions: in vivo
[6] = Drug uptake in mouse BV-2 cells at 25 uM incubated for 1 hr measured per million cells by LC-MS/MS analysis; format: ADME, cell-based; conditions: bv-2, 1 h
[7] = target: Cyclin-dependent kinase 7 (Homo sapiens, UniProt P50613); assay: Inhibition of CDK7 (unknown origin) by ATP competitive based analysis
[8] = target: Mitogen-activated protein kinase 13 (Homo sapiens, UniProt O15264); assay: Inhibition of p38MAPK delta (unknown origin) by ATP competitive based analysis
[9] = target: Mitogen-activated protein kinase 9 (Homo sapiens, UniProt P45984); assay: Inhibition of JNK2 (unknown origin) by ATP competitive based analysis
BV-2 [10] = assay: Anti-inflammatory activity in mouse BV-2 cells assessed as reduction in LPS-induced TNFalpha production incubated for 1 hr followed by LPS stimulation and measured after 24 hrs by ELISA; format: functional, cell-based; conditions: dose 2-8 µM, time 25.0 hrs
[11] = target: Glycogen synthase kinase-3 beta (Homo sapiens, UniProt P49841); assay: biochemical
Description: Inhibition of recombinant human N-terminal His6-tagged GSK3beta H350L mutant expressed in baculovirus infected Sf21 cells using prephosphorylated polypeptide as substrate incubated for 1 min followed by substrate addition and measured after 30 mins by Kinase-Glo luminescence assay

Mus musculus = assay: Cognitive enhancing effect in ICR mouse model of scopolamine-induced cognitive dysfunction assessed as reduction in memory impairment by measuring increase in number of virtual platform crossings at 15 mg/kg, po by Morris water maze test; format: functional, organism-based
Homo sapiens [12] = species on record: Homo sapiens; assay: Selectivity index, ratio of IC50 for CDK1 (unknown origin) to IC50 for GSK-3 beta (unknown origin) by ATP competitive based analysis
[13] = target: Dual specificity tyrosine-phosphorylation-regulated kinase 1B (Homo sapiens, UniProt Q9Y463); assay: Inhibition of DYRK1B (unknown origin) by ATP competitive based analysis
[14] = AUC (0 to infinity) in Sprague-Dawley rat at 10 mg/kg, po by LC-MS/MS analysis; format: ADME, organism-based; design: route oral, time infinity, dose 10 mg/kg; conditions: in vivo
[15] = Cmax in Sprague-Dawley rat at 10 mg/kg, po measured upto 24 hrs by LC-MS/MS analysis; format: ADME, organism-based; design: route oral, dose 10 mg/kg, time <=24; conditions: in vivo
[16] = target: Cyclin-dependent kinase 6 (Homo sapiens, UniProt Q00534); assay: Inhibition of CDK6 (unknown origin) by ATP competitive based analysis
[17] = target: Mitogen-activated protein kinase 3 (Homo sapiens, UniProt P27361); assay: Inhibition of ERK1 (unknown origin) by ATP competitive based analysis
[18] = target: Glycogen synthase kinase-3 beta (Mus musculus) (UniProt Q9WV60); assay: Inhibition of GSK3beta in mouse N2a cells overexpressing human tau assessed as tau phosphorylation at Ser396 residue at 0.22 uM incubated for 6 hrs by Western blot analysis (reference value: […] %); format: cell-based; design: scale not given: the % may be the effect or the level left
[19] = Tmax in Sprague-Dawley rat at 5 mg/kg, iv measured upto 24 hrs by LC-MS/MS analysis; format: ADME, organism-based; conditions: in vivo
[20] = target: Glycogen synthase kinase-3 beta (Mus musculus) (UniProt Q9WV60); assay: Inhibition of GSK3beta in mouse N2a cells overexpressing human tau assessed as reduction in tau phosphorylation at Ser396 residue at 6 uM incubated for 6 hrs by Western blot analysis relative to control; format: cell-based
Homo sapiens [21] = species on record: Homo sapiens; assay: Selectivity index, ratio of IC50 for ERK2 (unknown origin) to IC50 for GSK-3 beta (unknown origin) by ATP competitive based analysis
Homo sapiens [22] = species on record: Homo sapiens; assay: Selectivity index, ratio of IC50 for CDK4 (unknown origin) to IC50 for GSK-3 beta (unknown origin) by ATP competitive based analysis
BV-2 [23] = assay: Anti-inflammatory activity in mouse BV-2 cells assessed as reduction in LPS-induced TNFalpha production at 8 uM incubated for 1 hr followed by LPS stimulation and measured after 24 hrs by ELISA relative to control; format: functional; conditions: time 25 hrs
[24] = Volume of distribution in Sprague-Dawley rat at 10 mg/kg, po measured upto 24 hrs by LC-MS/MS analysis; format: ADME, organism-based; conditions: in vivo
[25] = target: Mitogen-activated protein kinase 1 (Homo sapiens, UniProt P28482); assay: Inhibition of ERK2 (unknown origin) by ATP competitive based analysis
[26] = target: Cyclin-dependent kinase 1 (Homo sapiens, UniProt P06493); assay: Inhibition of CDK1 (unknown origin) by ATP competitive based analysis
[27] = target: Cyclin-dependent kinase 9 (Homo sapiens, UniProt P50750); assay: Inhibition of CDK9 (unknown origin) by ATP competitive based analysis
[28] = target: Glycogen synthase kinase-3 beta (Mus musculus) (UniProt Q9WV60); assay: Inhibition of GSK3beta in mouse N2a cells overexpressing human tau assessed as tau phosphorylation at Ser396 residue at 0.074 uM incubated for 6 hrs by Western blot analysis (reference value: […] %); format: cell-based; design: scale not given: the % may be the effect or the level left
[29] = Clearance in Sprague-Dawley rat at 5 mg/kg, iv measured upto 24 hrs by LC-MS/MS analysis; format: ADME, organism-based; conditions: in vivo
[30] = Plasma concentration in ICR mouse at 15 mg/kg, po measured after 90 mins by LC-MS/MS analysis; format: ADME, organism-based
BV-2 [31] = assay: Cytotoxicity against mouse BV-2 cells assessed as effect on cell morphology; format: cell-based
[32] = target: Dual specificity tyrosine-phosphorylation-regulated kinase 1A (Homo sapiens, UniProt Q13627); assay: Inhibition of DYRK1A (unknown origin) by ATP competitive based analysis
[33] = MRT (0 to t) in Sprague-Dawley rat at 5 mg/kg, iv measured upto 24 hrs by LC-MS/MS analysis; format: ADME, organism-based; conditions: in vivo

Sequence of Glycogen synthase kinase-3 beta (Mus musculus) (Q9WV60 whole entry, looked up): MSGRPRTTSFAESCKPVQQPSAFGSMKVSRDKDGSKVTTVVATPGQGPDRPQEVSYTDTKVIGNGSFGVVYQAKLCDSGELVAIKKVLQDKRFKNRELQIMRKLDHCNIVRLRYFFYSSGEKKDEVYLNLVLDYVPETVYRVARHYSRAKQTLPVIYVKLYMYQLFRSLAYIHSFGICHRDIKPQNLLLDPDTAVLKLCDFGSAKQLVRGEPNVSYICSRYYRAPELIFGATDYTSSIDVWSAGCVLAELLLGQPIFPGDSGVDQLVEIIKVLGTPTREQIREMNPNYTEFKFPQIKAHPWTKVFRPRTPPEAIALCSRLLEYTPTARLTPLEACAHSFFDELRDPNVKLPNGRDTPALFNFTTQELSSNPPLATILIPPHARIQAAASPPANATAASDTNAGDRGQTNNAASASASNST
Sequence of Cyclin-dependent kinase 1 (P06493 whole entry): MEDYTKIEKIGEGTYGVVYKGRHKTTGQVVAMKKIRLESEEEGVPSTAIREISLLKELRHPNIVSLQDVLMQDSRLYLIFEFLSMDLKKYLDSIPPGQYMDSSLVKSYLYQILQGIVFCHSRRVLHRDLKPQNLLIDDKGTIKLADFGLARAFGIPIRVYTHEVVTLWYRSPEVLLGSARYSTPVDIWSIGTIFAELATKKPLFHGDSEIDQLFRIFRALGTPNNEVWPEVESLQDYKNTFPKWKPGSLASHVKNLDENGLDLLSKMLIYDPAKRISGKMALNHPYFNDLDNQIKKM
Sequence of Cyclin-dependent kinase 6 (Q00534 whole entry): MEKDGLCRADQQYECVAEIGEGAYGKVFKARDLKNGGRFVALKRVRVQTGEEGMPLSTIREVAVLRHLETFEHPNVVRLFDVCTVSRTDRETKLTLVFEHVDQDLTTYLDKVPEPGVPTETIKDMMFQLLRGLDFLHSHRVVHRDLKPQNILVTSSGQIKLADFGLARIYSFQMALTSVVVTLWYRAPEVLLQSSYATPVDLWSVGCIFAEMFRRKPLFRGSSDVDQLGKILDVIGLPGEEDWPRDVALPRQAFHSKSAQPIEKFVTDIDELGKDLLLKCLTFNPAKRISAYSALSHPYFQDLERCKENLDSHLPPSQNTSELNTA
Sequence of Dual specificity tyrosine-phosphorylation-regulated kinase 1B (Q9Y463 whole entry): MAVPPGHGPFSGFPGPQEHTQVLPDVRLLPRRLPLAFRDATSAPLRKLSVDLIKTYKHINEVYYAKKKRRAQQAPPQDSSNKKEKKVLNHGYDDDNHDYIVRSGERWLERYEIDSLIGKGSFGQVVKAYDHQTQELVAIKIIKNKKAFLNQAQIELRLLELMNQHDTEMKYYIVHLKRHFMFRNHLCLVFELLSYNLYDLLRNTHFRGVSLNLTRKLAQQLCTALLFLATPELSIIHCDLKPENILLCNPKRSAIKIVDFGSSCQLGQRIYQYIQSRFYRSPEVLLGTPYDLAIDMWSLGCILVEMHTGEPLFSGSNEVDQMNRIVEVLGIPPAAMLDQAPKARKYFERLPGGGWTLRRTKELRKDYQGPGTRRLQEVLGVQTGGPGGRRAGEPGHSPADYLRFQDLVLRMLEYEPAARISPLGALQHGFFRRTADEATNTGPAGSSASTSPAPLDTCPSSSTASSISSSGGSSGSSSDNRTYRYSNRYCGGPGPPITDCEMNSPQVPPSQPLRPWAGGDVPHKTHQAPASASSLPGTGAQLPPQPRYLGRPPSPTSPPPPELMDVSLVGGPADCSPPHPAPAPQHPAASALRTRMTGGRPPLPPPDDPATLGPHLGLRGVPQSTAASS
Sequence of Mitogen-activated protein kinase 13 (O15264 whole entry): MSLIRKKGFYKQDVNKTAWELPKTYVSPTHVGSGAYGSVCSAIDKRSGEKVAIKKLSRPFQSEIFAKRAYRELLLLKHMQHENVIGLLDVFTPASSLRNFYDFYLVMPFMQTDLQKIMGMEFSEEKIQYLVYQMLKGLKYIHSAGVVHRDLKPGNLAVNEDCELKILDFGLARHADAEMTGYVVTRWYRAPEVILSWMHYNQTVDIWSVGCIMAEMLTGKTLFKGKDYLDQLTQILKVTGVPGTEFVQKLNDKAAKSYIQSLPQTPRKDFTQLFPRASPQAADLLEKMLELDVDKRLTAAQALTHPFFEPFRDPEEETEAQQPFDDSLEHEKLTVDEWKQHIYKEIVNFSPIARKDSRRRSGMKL
Sequence of Cyclin-dependent kinase 9 (P50750 whole entry): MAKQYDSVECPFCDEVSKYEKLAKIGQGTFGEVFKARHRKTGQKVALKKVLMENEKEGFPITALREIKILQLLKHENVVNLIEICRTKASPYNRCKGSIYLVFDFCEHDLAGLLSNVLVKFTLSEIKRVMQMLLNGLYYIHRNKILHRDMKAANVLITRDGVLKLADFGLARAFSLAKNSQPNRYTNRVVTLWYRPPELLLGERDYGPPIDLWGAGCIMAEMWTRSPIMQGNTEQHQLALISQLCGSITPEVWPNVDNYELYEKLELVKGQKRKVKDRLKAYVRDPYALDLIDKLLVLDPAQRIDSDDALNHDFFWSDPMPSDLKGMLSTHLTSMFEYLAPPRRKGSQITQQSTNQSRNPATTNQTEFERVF
Sequence of Mitogen-activated protein kinase 1 (P28482 whole entry): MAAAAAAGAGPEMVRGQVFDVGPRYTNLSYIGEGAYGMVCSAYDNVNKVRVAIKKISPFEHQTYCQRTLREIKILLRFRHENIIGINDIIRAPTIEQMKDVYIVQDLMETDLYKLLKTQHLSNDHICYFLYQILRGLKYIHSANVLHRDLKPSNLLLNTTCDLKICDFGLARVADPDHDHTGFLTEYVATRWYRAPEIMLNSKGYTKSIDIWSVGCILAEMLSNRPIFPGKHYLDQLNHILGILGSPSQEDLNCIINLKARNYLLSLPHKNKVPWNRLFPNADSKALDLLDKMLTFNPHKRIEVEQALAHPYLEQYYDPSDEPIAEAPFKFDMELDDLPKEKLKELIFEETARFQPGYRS
Sequence of Cyclin-dependent kinase 7 (P50613 whole entry): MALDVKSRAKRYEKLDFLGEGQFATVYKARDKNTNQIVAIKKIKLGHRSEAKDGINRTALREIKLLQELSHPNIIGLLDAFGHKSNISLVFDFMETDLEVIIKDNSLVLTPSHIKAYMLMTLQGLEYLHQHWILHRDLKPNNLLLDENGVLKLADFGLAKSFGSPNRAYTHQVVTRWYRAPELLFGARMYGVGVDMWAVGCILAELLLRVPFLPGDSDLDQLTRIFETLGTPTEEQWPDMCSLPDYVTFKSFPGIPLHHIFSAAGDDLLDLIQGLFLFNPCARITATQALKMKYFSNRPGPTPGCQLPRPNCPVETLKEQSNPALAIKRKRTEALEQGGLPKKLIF
Sequence of Glycogen synthase kinase-3 beta (P49841 whole entry): as the sequence (Q9WV60 whole entry, looked up) above, with P390T, A392T, T400A, A402T counted along it
Sequence of Mitogen-activated protein kinase 10 (P53779 whole entry): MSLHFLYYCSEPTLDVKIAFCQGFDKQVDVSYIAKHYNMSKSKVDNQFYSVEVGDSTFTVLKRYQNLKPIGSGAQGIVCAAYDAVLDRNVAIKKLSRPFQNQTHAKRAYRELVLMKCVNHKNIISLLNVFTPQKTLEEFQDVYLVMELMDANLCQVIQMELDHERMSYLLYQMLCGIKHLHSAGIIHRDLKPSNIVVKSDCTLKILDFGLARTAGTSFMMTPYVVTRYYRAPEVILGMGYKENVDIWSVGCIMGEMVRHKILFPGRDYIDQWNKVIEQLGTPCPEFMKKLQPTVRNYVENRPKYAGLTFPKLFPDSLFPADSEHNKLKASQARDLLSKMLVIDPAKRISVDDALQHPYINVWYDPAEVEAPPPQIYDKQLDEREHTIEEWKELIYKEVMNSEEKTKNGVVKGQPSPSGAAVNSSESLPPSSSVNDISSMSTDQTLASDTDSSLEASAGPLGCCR
Sequence of Mitogen-activated protein kinase 9 (P45984 whole entry): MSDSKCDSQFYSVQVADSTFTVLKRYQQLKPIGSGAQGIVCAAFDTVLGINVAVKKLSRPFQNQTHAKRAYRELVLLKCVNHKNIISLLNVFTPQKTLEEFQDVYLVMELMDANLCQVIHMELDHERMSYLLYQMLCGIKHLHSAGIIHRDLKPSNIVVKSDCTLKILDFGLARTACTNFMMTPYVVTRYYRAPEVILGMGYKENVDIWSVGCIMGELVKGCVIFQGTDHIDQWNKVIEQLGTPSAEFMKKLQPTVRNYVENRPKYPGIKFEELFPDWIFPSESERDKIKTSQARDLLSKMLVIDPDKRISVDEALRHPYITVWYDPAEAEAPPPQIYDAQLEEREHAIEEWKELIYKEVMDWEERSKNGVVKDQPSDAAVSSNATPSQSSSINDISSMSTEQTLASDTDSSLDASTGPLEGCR
Sequence of Mitogen-activated protein kinase 3 (P27361 whole entry): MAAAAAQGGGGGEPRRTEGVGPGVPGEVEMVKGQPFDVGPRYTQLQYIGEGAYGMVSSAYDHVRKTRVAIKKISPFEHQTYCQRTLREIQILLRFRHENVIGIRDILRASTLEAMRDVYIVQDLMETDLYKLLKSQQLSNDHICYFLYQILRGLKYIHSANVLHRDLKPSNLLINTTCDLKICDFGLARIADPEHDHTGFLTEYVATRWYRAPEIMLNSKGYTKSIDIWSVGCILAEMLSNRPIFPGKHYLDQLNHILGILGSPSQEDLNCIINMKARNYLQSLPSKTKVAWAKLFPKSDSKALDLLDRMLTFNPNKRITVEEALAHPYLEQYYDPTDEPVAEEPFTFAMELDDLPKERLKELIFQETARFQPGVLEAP

NC(=O)c1sc(-c2ccnc(NC(=O)C3CC3)c2)nc1OCCCC1CCN(Cc2ccc(F)cc2)CC1
Ratio IC50 (Homo sapiens [1]): 200 | Activity (N2a): inactive | Ratio IC50 (Homo sapiens [2]): 200 | IC50 [3]: > 300 nM | Activity (BV-2 [4]): Active | CL/F [5]: 112 mL/min/kg | Drug uptake [6]: 722 ng | IC50 [7]: > 300 nM | IC50 [8]: > 300 nM | IC50 [9]: > 300 nM | Activity (BV-2 [10]): Dose-dependent effect | IC50 [11]: 3 nM | Activity (Mus musculus): Active | Ratio IC50 (Homo sapiens [12]): 200 | IC50 [13]: 37.8 nM | AUC(0-inf) [14]: 1260 ng·h/mL | Cmax [15]: 132 ng/mL | IC50 [16]: > 300 nM | IC50 [17]: > 300 nM | Activity [18]: 63.3% | Tmax [19]: 4.98 min | Imax [20]: 93% | Ratio IC50 (Homo sapiens [21]): 200 | Ratio IC50 (Homo sapiens [22]): 200 | inhibition at 8 µM (BV-2 [23]): 100% | Vd [24]: 60.7 L/kg | IC50 [25]: > 300 nM | IC50 [26]: > 300 nM | IC50 [27]: 108 nM | Activity [28]: 91.1% | clearance [29]: 42.5 mL/min/kg | concentration at 1.5 h [30]: 265 ng/mL | Activity (BV-2 [31]): Non-Toxic | IC50 [32]: 8.1 nM | MRT last at 24 h [33]: 3.3 h
